Test results published in US20240252508A1, “Novel glucose uptake inhibitors for use in the treatment of cancer” (NOVELYEAST BV, priority 2021, published 2024).
Like-named read-outs stand apart in the source and are kept apart here.

Assays:
[1] = target: T1, human GLUT1^V69M (Homo sapiens, UniProt P11166, V69M); assay: Glucose uptake by GLUT1^V69M expressed in hxt^0 gal2Δ (RE700A) yeast; format: cell-based; details: 2.5 mM glucose
T1 construct: HA (C); expressed in transfected cells; host or cells: S. cerevisiae RE700A (hxt0 gal2Δ), plasmid pFL38Kan-GLUT1^V69M (TEF1 promoter, low-copy)
T1 sequence (P11166 1-492 V69M): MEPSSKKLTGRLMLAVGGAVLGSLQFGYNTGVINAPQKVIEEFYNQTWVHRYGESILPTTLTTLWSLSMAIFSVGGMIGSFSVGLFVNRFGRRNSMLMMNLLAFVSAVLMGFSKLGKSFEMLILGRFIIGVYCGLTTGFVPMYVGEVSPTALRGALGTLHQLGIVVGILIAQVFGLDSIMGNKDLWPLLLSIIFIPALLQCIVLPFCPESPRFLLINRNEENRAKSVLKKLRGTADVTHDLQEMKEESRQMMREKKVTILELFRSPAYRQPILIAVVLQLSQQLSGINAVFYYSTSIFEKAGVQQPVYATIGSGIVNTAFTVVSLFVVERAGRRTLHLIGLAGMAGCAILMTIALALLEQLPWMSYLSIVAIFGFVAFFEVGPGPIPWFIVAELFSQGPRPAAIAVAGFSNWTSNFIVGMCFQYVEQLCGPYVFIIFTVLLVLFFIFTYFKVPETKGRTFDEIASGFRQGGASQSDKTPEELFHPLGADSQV
Description: (§1) To assess whether WBC-A could inhibit glucose transport activity of the GLUT carriers, we expressed human GLUT1^V69M and GLUT4^V85M in a hxt^0 gal2Δ (RE700A) and hxt^0 erg4Δ (EBY.VW4000) strain, respectively. These strains are both deficient in glucose uptake due to absence of all active glucose transporters. For functional GLUT expression in yeast, specific mutations had to be introduced in both sequences, whereas for GLUT4, an additional ERG4 gene deletion was required^64,65,66.
(§2) Zero-trans uptake of radioactively labeled [U-^14C]glucose, [U-^14C]fructose or [U-^14C]galactose by S. cerevisiae cells was determined in accordance with previous studies^44,66. Cells were grown on different carbon sources depending on the experiment. For measuring glucose uptake activity in the tps1Δ and tps1Δ hxtA strains (FIG. 1b,c), cells were grown on YP medium containing 3% glycerol (measurement of 10s). Typically, for compound characterization and kinetic studies in wild type and tps1Δ strains, cells were (pre)grown on Complete Synthetic medium supplemented with 2% galactose (measurement of 10s). […] The loaded filter was transferred to a scintillation vial containing 3 mL liquid scintillation cocktail (Ultima-Flo M, Perkin Elmer) and counted using the Hidex 300 SL. […]

[2] = test system: A549 lung adenocarcinoma cells; assay: 2-deoxyglucose uptake in A549 cells; format: cell-based, human
Description: Zero-trans glucose uptake in A549 cells was approximated by measuring the uptake of [1,2-^3H]2-deoxyglucose. For this purpose, A549 cells were pregrown in RPMI medium containing 10 mM glucose in a 24-well plate to a cell density of around 100,000 cells/well. Prior to adding radioactive label, cells were gently washed twice in Krebs-Ringer-HEPES buffer (50 mM HEPES pH 7.4, 137 mM NaCl, 4.7 mM KCl, […], 1.3 mM MgSO4 and 0.1% w/v BSA) at 30° C. to remove any residual sugar. RPMI medium without sugar containing the compound intended for treatment, was added to the cells for 15 min at 37° C. to allow adequate interaction of the cells with the compound.
The uptake measurement was initiated by adding an equal volume of medium containing radiolabeled 2DG. After 3-4 min, medium was aspirated and cells were gently washed three times with ice-cold Krebs-Ringer-HEPES buffer. Cells were lysed by adding 200 μL of ice-cold 0.1 M NaOH solution and incubating the plate for 10 min at 37° C. Cell lysates were transferred to scintillation vials for subsequent scintillation counting. For blank measurements, cells were incubated with 50 μM Cytochalasin B prior to the uptake measurement.

[3] = target: T2, yeast Hxt7 (Saccharomyces cerevisiae, UniProt P39004); assay: Glucose uptake by Hxt7 expressed in hxt^0 erg4Δ (EBY.VW4000) yeast; format: cell-based, S. cerevisiae
T2 construct: HA (C); expressed in transfected cells; host or cells: S. cerevisiae RE700A (hxt0 gal2Δ) in A5; EBY.VW4000 (hxt0 erg4Δ) in A7; plasmid 'pHXT7'
T2 sequence (P39004 whole entry): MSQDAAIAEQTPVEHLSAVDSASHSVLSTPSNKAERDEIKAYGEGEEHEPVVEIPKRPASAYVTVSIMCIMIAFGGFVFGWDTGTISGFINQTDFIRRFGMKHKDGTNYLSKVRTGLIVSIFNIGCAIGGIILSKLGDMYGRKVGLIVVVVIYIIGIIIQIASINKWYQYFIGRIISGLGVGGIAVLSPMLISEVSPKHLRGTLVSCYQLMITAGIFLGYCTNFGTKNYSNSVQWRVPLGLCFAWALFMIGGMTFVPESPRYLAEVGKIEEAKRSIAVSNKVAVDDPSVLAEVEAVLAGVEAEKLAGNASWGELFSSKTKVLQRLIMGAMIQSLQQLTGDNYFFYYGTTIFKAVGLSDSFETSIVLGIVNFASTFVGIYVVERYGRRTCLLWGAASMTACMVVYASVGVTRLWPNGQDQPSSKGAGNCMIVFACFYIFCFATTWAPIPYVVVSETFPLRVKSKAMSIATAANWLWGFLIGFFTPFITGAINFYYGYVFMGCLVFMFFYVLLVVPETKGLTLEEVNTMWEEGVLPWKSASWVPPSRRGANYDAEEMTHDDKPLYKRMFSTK
Description: as §1, §2

[4] = test system: tps1Δ cells; assay: Zero-trans glucose uptake in tps1Δ yeast cells; format: cell-based, S. cerevisiae; details: for Ki: Dixon plot analysis
Description: Zero-trans uptake of radioactively labeled [U-^14C]glucose, [U-^14C]fructose or [U-^14C]galactose by S. cerevisiae cells was determined in accordance with previous studies^44,66. Cells were grown on different carbon sources depending on the experiment. For measuring glucose uptake activity in the tps1Δ and tps1Δ hxtA strains (FIG. 1b,c), cells were grown on YP medium containing 3% glycerol (measurement of 10s). Typically, for compound characterization and kinetic studies in wild type and tps1Δ strains, cells were (pre)grown on Complete Synthetic medium supplemented with 2% galactose (measurement of 10s). In the experiments on the influence of hexokinase activity on the sugar uptake rate, the measurement duration was shortened to 5s and cells were always grown on YP medium containing 3% glycerol and 2% ethanol. After harvesting, cells were washed twice with ice-cold 25 mM MES-buffer pH 6, and resuspended in their respective medium without sugar to a final concentration of 45 mg (wet weight)/mL. The amount of added tracer was estimated to give a response close to at least 1000 counts per min in order to adequately counter background noise. Cells were first preincubated for 10 min at 30° C. with the compound to acclimate the cells to the temperature and to allow adequate interaction with the compound prior to uptake. Next, hexose sugar was mixed with the cell suspension, which was then incubated for 5 or 10 s, depending on the experiment, after which the cells were rapidly filtered over a glass microfiber filter (Whatman GF/C) and washed three times with ice-cold dH2O. The loaded filter was transferred to a scintillation vial containing 3 mL liquid scintillation cocktail (Ultima-Flo M, Perkin Elmer) and counted using the Hidex 300 SL. Three blank measurements per strain were typically included to account for background signal, for which the cells were first quenched before adding the radioactive label.

[5] = target: T3, yeast Hxt7 carrier (Saccharomyces cerevisiae, UniProt P39004); assay: Glucose uptake by Hxt7 expressed in hxt^0 gal2Δ (RE700A) yeast; format: cell-based, S. cerevisiae
T3 construct: HA (C); expressed in transfected cells; host or cells: S. cerevisiae RE700A (hxt0 gal2Δ) in A5; EBY.VW4000 (hxt0 erg4Δ) in A7; plasmid 'pHXT7'
T3 sequence (P39004 whole entry): as above
Description: as §1, §2

Cc1nc(Sc2nnc3n2CCCCC3)c2c(-c3cccs3)csc2n1 [WBC-A]
Inhibition of glucose uptake by GLUT1^V69M at 25 μM ([1]; 25 μM, hxt^0 gal2Δ strain): inhibited | IC50 ([1]; hxt^0 gal2Δ (RE700A)): 24 µM | Ki ([2]; Dixon plot analysis, read-out: Ki (=K′i), 2-deoxyglucose uptake in A549 cells): 52.8 µM | Type of inhibition of 2-deoxyglucose uptake in A549 cells ([2]; Lineweaver-Burk plot analysis): noncompetitive | IC50 [3]: 12.9 µM | Ki [4]: 8.35 µM | Ki ([4]; printed K′, read-out: K′i, glucose uptake, tps1Δ cells): 35.4 µM | Type of inhibition of glucose uptake, tps1Δ cells ([4]; Lineweaver-Burk plot analysis): mixed type | IC50 [5]: 51 µM | Inhibition of glucose uptake by Hxt7 at 25 μM ([5]; 25 μM, 2.5 mM glucose, hxt^0 gal2Δ strain): inhibited
